Experimental data as given in patent US20250268856A1, “Pain Relieving Method” (Animal Ethics Pty Ltd, priority 2019, published 2025).
“And” between values parts separate entries of the source, which are not always exact repeats. Equal entries are not always repeated. Blank lines part the entries; values can stand above or below the compound they belong to.

What was measured:
[1] = Study 1: porcine plasma profiles of tetracaine and meloxicam applied topically to the castration surgical site; format: in vivo
Description: Dose Calculation, Preparation & Administration: Study animals were dosed according to the Treatment Regime outlined in Table 4 below. No preparation of any of the IVPs was performed other than inversion of each container 2-3 times prior to treatment.
Blood Analysis: Blood samples were collected from allocated animals via anterior vena-caval puncture using 21G, 1.5″ needle attached to 10 mL syringes and transferred immediately into 5 mL lithium heparin blood tubes. Blood samples were processed for extraction of plasma on the day of collection, which for each sample was stored in duplicate, frozen (˜−18° C.). Replicate 1 plasma samples were forwarded frozen to a laboratory for tetracaine and meloxicam analyses after the conclusion of the animal phase.
Study animals were dosed according to the application rates detailed in Table 4. No preparation of any of the IVPs was required prior to dosing.
Castration was performed using a sterile scalpel as per the following process: • 1. Piglet to be gently restrained (for a minimum of 30 seconds prior to incision) in Kerble piglet cradle in order to expose the ano-genital region of the piglet. • 2. Only when piglet is settled, incise scrotum (including tunica) with one single transverse incision to expose and exteriorise each testis; • 3. Immediately apply treatment (40% total dose to each side) to coat the exposed spermatic cord and the cut skin edge. […] Wait 30 seconds; • 5. The testis may then be removed by severing the cord as per routine procedure. Remove each testis as per normal procedure. • 6. Apply the remaining 20% of the total dose evenly of the surface of the surgical wound.

[2] = Study 2: motor response scores to the procedure of castration; format: in vivo, piglets; settings: during the procedure (castration), versus placebo, topical to open wound
Description: (§1) Study 2: A follow-up study confirmed efficacy of meloxicam analgesic effects when applied to piglets via topical wound application either alone or in combination with tetracaine 2%. Piglets were treated with placebo, meloxicam 0.1%, tetracaine 2% or a combination of tetracaine 2% and meloxicam 1%, otherwise formulated as above, and examined for clinical efficacy via documentation of motor response scores to a) the procedure of castration, and b) pre- and post-operative mechanical sensory testing of the wound site using Von-Frey filament testing.

[3] = In-house trials of tetracaine applied directly to the open castration wound; format: in vivo, piglets; settings: applied to open castration wound 20 seconds prior to severing cordal tissues, 1 ml/kg of 2% or 5% solution
Excerpt: Tetracaine is a rapid onset surface anaesthetic, that is rapidly metabolised by plasma-esterases, such that may induce high potency local effects with minimal systemic effects. […] Topical wound application formulations were thus developed to examine the potential for systemic NSAID analgesic drug (meloxicam) delivery via topical wound application, applied alone, or combined with topical local anaesthetic (tetracaine) to the castration wound in piglets. Topical wound application formulations were developed containing meloxicam alone, tetracaine alone and combinations of meloxicam and tetracaine to examine systemic absorption and clinical effects.

[4] = Study 2: post-operative mechanical sensory testing of the wound site using Von-Frey filament testing (motor response scores); format: in vivo, piglets; settings: versus placebo
Description: as §1

[5] = male, pig, in vivo

Meloxicam concentration in porcine plasma ([1]; 1 hr post-treatment, individual piglets, topical to castration wound): 102.9 ng/mL and 118.0 ng/mL
Meloxicam concentration in porcine plasma ([1]; 2 hr post-treatment, individual piglets, topical to castration wound): 126.7 ng/mL and 238.9 ng/mL
Sustained plasma levels of meloxicam ([1]; group level (FIG. 4)): 100 to 200 ng/mL
concentration at 15 min ([1]; male, pig, plasma, topical, 15 min post-treatment, individual piglets, topical to castration wound): 86.9 ng/mL
concentration at 30 min ([1]; male, pig, plasma, topical, 30 min post-treatment, individual piglets, topical to castration wound): 109 ng/mL
concentration at 1 hr ([1]; male, pig, plasma, topical, 1 hr post-treatment, individual piglets, topical to castration wound): 190 ng/mL
concentration at 2 hr ([1]; male, pig, plasma, topical, 2 hr post-treatment, individual piglets, topical to castration wound): 126 ng/mL
Time of peak plasma meloxicam level ([1]; post-treatment, group level (FIGS. 4, 5)): 4 h
SMILES: Cc1cnc(NC(=O)C2=C(O)c3ccccc3S(=O)(=O)N2C)s1 [Meloxicam]
Meloxicam concentration in porcine plasma ([1]; 15 min post-treatment, individual piglets, topical to castration wound): 144.8 ng/mL and 119.8 ng/mL and 81.8 ng/mL and 88.2 ng/mL
Meloxicam concentration in porcine plasma ([1]; 30 min post-treatment, individual piglets, topical to castration wound): 166.0 ng/mL and 94.6 ng/mL and 101.3 ng/mL and 104.8 ng/mL
Meloxicam concentration in porcine plasma ([1]; 4 hr post-treatment, individual piglets, topical to castration wound): 100.9 ng/mL and 458.7 ng/mL and 63.3 ng/mL and 230.0 ng/mL and 244.6 ng/mL and 113.2 ng/mL

Time of peak plasma tetracaine level ([1]; male, pig, in vivo): 1 h
SMILES: CCCCNc1ccc(C(=O)OCCN(C)C)cc1 [Tetracaine]
Motor response scores [2]: significant reduction
Pain during castration and in the first minutes and 1-2 hours following [3]: effective to ameliorate pain
Motor response scores ([4]; 1 minute following the procedure): significant reduction
Motor response scores ([4]; 1 hour following the procedure): anaesthetic effects were still evident
Motor response scores ([4]; 12 hours following the procedure): rebound hyperaesthesia

Period plasma levels remained at those levels [5]: 24 h
SMILES: CCCCN1CCCCC1C(=O)Nc1c(C)cccc1C (stereo not drawn) [bupivacaine]
